Patent US5340816A, “Hydroxymethyl(methylenecyclopentyl) purines and pyrimidines” (E. R. Squibb & Sons, Inc., priority 1993, dated 1994)

Tests used:
[1] = system: HCMV; test: HCMV antiviral plaque reduction assay in WI-38 cell culture monolayers; assay type: cell-based, human cytomegalovirus, strain AD 169; settings: Human betaherpesvirus 5, WI-38 cells, 5-7 days at 37° C., read-out: ID50 for HCMV
Procedure: (§1) Assays were performed in cell culture systems to determine the concentrations of compounds that are effective in preventing several kinds of viral infections.
(§2) HSV-1 (herpes simplex virus type 1, strain Schooler), HSV-2 (herpes simplex virus type 2, strain 186), VZV (varicella zoster virus, strain ELLEN), HCMV (human cytomegalovirus, strain AD 169 HIV (human immununodeficiency virus, strain HTLV-IIIB).
(§3) HSV-1, HSV-2, HCMV and VZV antiviral assays: Virus was adsorbed to WI-38 cell culture monolayers in 6 well culture plates (Costar, Cambridge, Mass.) for 1 hour prior to addition of maintenance medium containing duplicate dilutions of the test compound. Inhibition of plaque development was evaluated on fixed and stained monolayers after 4 days incubation at 37° C. for HSV-1 and HSV-2, and after 5-7 days incubation at 37° C. for HCMV and VZV. ID50 values were determined from the drug concentration which conferred at least a 50% plaque reduction compared to virus controls.

[2] = system: HSV-2; test: HSV-2 antiviral plaque reduction assay in WI-38 cell culture monolayers; assay type: cell-based, herpes simplex virus type 2, strain 186; settings: Human alphaherpesvirus 2, 96 h, WI-38 cells, 4 days at 37° C., read-out: ID50 for HSV-2
Procedure: as §1, §2, §3

[3] = Reduction of cell viability in uninfected MT-2 cells (XTT-PMS); assay type: cell-based; settings: human, 7 days
Procedure: HIV antiviral assay: Suspensions of MT-2 cells (S. Harada, et al., Science, 229, 563 (1985)) were infected at a multiplicity of infection of 0.03 TLID50 /cell with HIV (strain HTLV-III B). After adsorption for 1-2 hours at 37° C., infected cells were diluted in growth medium (RPMI 1640 containing the antibiotics penicillin plus streptomycin and 10% fetal calf serum) to give a final cell concentration of 1×10^4 viable cells/culture well in the presence of serial dilutions of the test compound, starting at 100 μg/ml. Triplicate samples at each drug concentration were used. Cultures of uninfected MT-2 cells were similarly prepared and incubated with serial dilutions of test compound in duplicate. All assays were performed in 96 well disposable cell culture plates. Untreated (infected and uninfected) cells were included as controls. […] Following incubation, viable cell numbers were counted in each well using a colorimetric assay following incubation of cells with XTT-PMS solution (XTT tetrazolium reagent plus phenazine methosulfate PMS).
(§4) Percent reduction of viral cytopathic effect (CPE) in drug treated compared to untreated virus infected cells, and percent reduction of cell viability in drug treated uninfected cells compared to untreated controls were calculated and plotted versus the drug concentrations tested. […]

[4] = system: VZV; test: VZV antiviral plaque reduction assay in WI-38 cell culture monolayers; assay type: cell-based, varicella zoster virus, strain ELLEN; settings: Human alphaherpesvirus 3, WI-38 cells, 5-7 days at 37° C., read-out: ID50 for VZV
Procedure: as §1, §2, §3

[5] = system: HIV; test: HIV antiviral assay (reduction of viral cytopathic effect in MT-2 cells, XTT-PMS); assay type: cell-based, human immununodeficiency virus, strain HTLV-IIIB; settings: Human immunodeficiency virus 1, MT2, 168 h, 7 days, read-out: reduction in viral CPE (HIV)
Procedure: as §1, §2
HIV antiviral assay: Suspensions of MT-2 cells (S. Harada, et al., Science, 229, 563 (1985)) were infected at a multiplicity of infection of 0.03 TLID50 /cell with HIV (strain HTLV-III B). […] Following incubation, viable cell numbers were counted in each well using a colorimetric assay following incubation of cells with XTT-PMS solution (XTT tetrazolium reagent plus phenazine methosulfate PMS).
as §4

[6] = system: HSV-1; test: HSV-1 antiviral plaque reduction assay in WI-38 cell culture monolayers; assay type: cell-based, herpes simplex virus type 1, strain Schooler; settings: Human alphaherpesvirus 1, 96 h, WI-38 cells, 4 days at 37° C., read-out: ID50 for HSV-1
Procedure: as §1, §2, §3

Row | Compound | IC50 [1] | IC50 [2] | cytotoxicity at 168 h, 12 µM ([3]; at 12 μM) | IC50 [4] | inhibition at 12 µM ([5]; at 12 μM) | IC50 [6] | cytotoxicity at 168 h, 27 µM ([3]; at 27 μM) | inhibition at 27 µM ([5]; at 27 μM)
1 | C=C1[C@H](CO)[C@@H](O)C[C@@H]1n1cnc2c(=O)[nH]c(N)nc21 [[1S-(1α,3α,4β)]-2-Amino-1,9-dihydro-9-[4-hydroxy-3-(hydroxymethyl)-2-methylenecyclopentyl]-6H-purin-6-one] | 90 µM | 7.2 to 18 µM | 4% | 18 to 36 µM | 41% | 3.6 µM | – | –
2 | C=C1[C@H](CO)[C@@H](O)C[C@@H]1n1cc(/C=C/Cl)c(=O)[nH]c1=O [[1S-[1α(E),3α,4β]]-5-(2-Chloroethenyl)-1-[4-hydroxy-3-(hydroxymethyl)-2-methylenecyclopentyl]-2,4(1H,3H)-pyrimidinedione] | – | 2 µM | – | 1.7 µM | – | 0.07 to 0.16 µM | – | –
3 | C=C1[C@H](CO)[C@@H](O)C[C@@H]1n1cc(I)c(=O)[nH]c1=O [[1S-(1α,3α,4β)]-1-[4-Hydroxy-3-(hydroxymethyl)-2-methylenecyclopentyl]-5-iodo-2,4(1H,3H)pyrimidinedione] | 68 to 137 µM | > 275 µM | – | 68 to 137 µM | – | 6 to 14 µM | – | –
4 | C=C1[C@H](CO)[C@@H](O)C[C@@H]1n1cc(/C=C/I)c(=O)[nH]c1=O | > 260 µM | 13 to 26 µM | – | 0.05 to 0.14 µM | – | 0.5 to 1.3 µM | – | –
5 | C=C1[C@H](CO)[C@@H](O)C[C@@H]1n1cc(/C=C/Br)c(=O)[nH]c1=O [[1S-[1α(E),3α,4β)]-5-(2-Bromoethenyl)-1-[4-hydroxy-3-(hydroxymethyl)-2-methylenecyclopentyl]-2,4(1H,3H)-pyrimidinedione] | 291 µM | 29 to 73 µM | – | 0.3 to 0.6 µM | – | 0.6 to 1.5 µM | – | –
6 | C=C1[C@H](CO)[C@@H](O)C[C@@H]1n1cc(C)c(=O)[nH]c1=O [[1S-(1α,3α,4β)]-1-[4-Hydroxy-3-(hydroxymethyl)-2-methylenecyclopentyl]-5-methyl-2,4(1H,3H)-pyrimidinedione] | ≥ 396 µM | 40 to 100 µM | – | 40 to 400 µM | – | 8 to 20 µM | – | –
7 | C=C1[C@H](CO)[C@@H](O)C[C@@H]1n1ccc(N)nc1=O | 2.1 to 4.2 µM | 2.1 to 4.2 µM | – | 4.2 to 42 µM | – | 4.2 to 8.4 µM | – | –
8 | C=C1[C@H](CO)[C@@H](O)C[C@@H]1n1cnc2c(N)ncnc21 [[1R-(1α,3α,5β)]-3-(6-Amino-9H-purin-9-yl)-5-hydroxy-2-methylenecyclopentanemethanol] | > 38 µM | 191 to 383 µM | – | > 96 µM | – | 191 to 383 µM | 23% | 50%
